This note sets out measurements from ChEMBL document CHEMBL1201862, “PubChem BioAssay data set” (2004).

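The compound was tested at five concentrations on cells cultured in 96-well plates, with a 48-hour exposure period. At the GI50, growth is halved.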 The source made the active and inactive calls. Rule as the data show it: active = GI50 up to about 1.1 µM and inactive = higher. Non-standard residues stand in square brackets, D forms with d. Residues, ends and D or L forms follow the SMILES beside them. ξ: configuration not given here. *: point of attachment. NMeY = CN[C@@H](Cc1ccc(O)cc1)C(=O)O; Cbz = O=C(OCc1ccccc1)*; ξA = CC(N)C(=O)O Where only a bound is given, the exact number is not on record here.

Test systems include 786-0; A498; A549; HCT-15; HOP-62; HT-29; IGROV-1; KM12; MDA-MB-231; Malme-3M; NCI-H226; OVCAR-4; RXF 393; SF-295; SK-MEL-5; SN12C; SNB-19; SR; SW-620; U-251.
What all share (experiment): NCI anticancer screen, dose series, 48 h

Take `OCCSCc1ccccc1`: the GI50 in the test on 786-0 was > 100 µM (inactive); in the test with A498, > 100 µM (inactive); with A549 it was > 100 µM (inactive); with HCT-15, above 100 µM; with HOP-62, > 100 µM (inactive); with HT-29, > 100 µM (inactive). Besides, the GI50 with IGROV-1, in the test with KM12, in the test with MDA-MB-231, in the test on Malme-3M, in the test on NCI-H226 and with OVCAR-4 was > 100 µM (inactive) each time. Also, the GI50 in the test on RXF 393, in the test with SF-295, in the test with SK-MEL-5, with SN12C, with SNB-19 and in the test on SR was > 100 µM (inactive) in each case. In addition, the GI50 in the test with SW-620 and with U-251 was > 100 µM (inactive) throughout.

With `Cc1cn([C@H]2C[C@@H](N3C(=O)c4ccccc4C3=O)[C@@H](CO[Si](C)(C)C(C)(C)C)O2)c(=O)[nH]c1=O`, the GI50 with 786-0 was 26.9 µM (inactive); with A498, > 100 µM (inactive); with A549 it was 85.5 µM (inactive); in the test on HCT-15 it was above 100 µM; in the test with HOP-62 it was 20.7 µM (inactive); in the test with HT-29 it was 20.4 µM (inactive). For the same compound, the GI50 with IGROV-1 was 55 µM (inactive); in the test on KM12, 91.6 µM (inactive); with MDA-MB-231 it was 70.3 µM (inactive); with Malme-3M it was 87.3 µM (inactive); in the test with NCI-H226 it was 57.1 µM (inactive); in the test on OVCAR-4, > 100 µM (inactive). The GI50 in the test with RXF 393 is 19.7 µM (inactive); with SF-295, 37 µM (inactive); in the test with SK-MEL-5 it was > 100 µM (inactive); with SN12C it was > 100 µM (inactive); in the test on SNB-19 it was 29.3 µM (inactive); in the test with SR, 36.7 µM (inactive). The GI50 was > 100 µM (inactive) with SW-620 and 34.9 µM (inactive) in the test with U-251.

As for `N#Cc1c(-c2ccc(Cl)cc2)cc(-c2ccc(Nc3ccnc4cc(C(F)(F)F)ccc34)cc2)nc1N`, the GI50 with 786-0 is 15 µM (inactive); in the test on A498, 19.6 µM (inactive); with A549, 83.4 µM (inactive); in the test on HCT-15, 17.9 µM; in the test on HOP-62 it was 19.7 µM (inactive); with HT-29 it was 16.6 µM (inactive). The GI50 with IGROV-1 is 29.2 µM (inactive); in the test on KM12 it was > 100 µM (inactive); in the test on MDA-MB-231, 28.7 µM (inactive); in the test on Malme-3M, 63.2 µM (inactive); in the test with NCI-H226 it was 24.7 µM (inactive); with OVCAR-4, 17.9 µM (inactive). The GI50 in the test with RXF 393 was 22.1 µM (inactive); in the test with SF-295 it was 19.3 µM (inactive); in the test on SK-MEL-5, 25.3 µM (inactive); with SN12C, 22 µM (inactive); with SNB-19, 16.9 µM (inactive); in the test with SR, 3.74 µM (inactive). Besides, the figures for the GI50 in the test on SW-620 and in the test with U-251 were 32.3 µM (inactive) and 18.7 µM (inactive), respectively.

For `CCCCCCCCCCCCCCCCCCNc1ccn(C2OC(CO)C(OP(=O)(O)OCC(COP(=O)(O)OCC3OC(n4cc(F)c(NCCCCCCCCCCCCCCCCCC)nc4=O)CC3O)OC(=O)CCCCCCCCCCCCCCC)C2O)c(=O)n1` (stereo not given), the GI50 in the test on 786-0 is > 100 µM (inactive); in the test with A498, > 100 µM (inactive); in the test with A549, > 100 µM (inactive); with HCT-15, above 100 µM; in the test with HOP-62, > 100 µM (inactive); with HT-29 it was > 100 µM (inactive). For the same compound, the GI50 in the test with IGROV-1, in the test on KM12, with MDA-MB-231, in the test with Malme-3M, in the test on NCI-H226 and in the test with OVCAR-4 was > 100 µM (inactive) each time. For the same compound, the GI50 with RXF 393, in the test on SF-295, in the test on SK-MEL-5, with SN12C, with SNB-19 and in the test with SR was > 100 µM (inactive) in each case. The GI50 in the test with SW-620 and in the test on U-251 was > 100 µM (inactive) throughout.

Take `O=c1[nH]c2nc[nH]c2c(=O)n1C1CCCCC1`: the GI50 in the test with 786-0 was > 100 µM (inactive); in the test with A498, > 100 µM (inactive); with A549, > 100 µM (inactive); in the test on HCT-15 it was above 100 µM; with HOP-62 it was > 100 µM (inactive); in the test with HT-29 it was > 100 µM (inactive). Also, the GI50 with IGROV-1, in the test on KM12, in the test on MDA-MB-231, in the test on Malme-3M, in the test on NCI-H226 and in the test with OVCAR-4 was > 100 µM (inactive) in each case. Moreover, the GI50 in the test with RXF 393, in the test on SF-295, in the test on SK-MEL-5, in the test with SN12C, with SNB-19 and in the test on SR was > 100 µM (inactive) each time. Moreover, the GI50 with SW-620 and in the test with U-251 was > 100 µM (inactive) each time.

In the case of `CC(=O)C(=Cc1ccc(C=C(C(C)=O)C(C)=O)cc1)C(C)=O`, the GI50 with 786-0 was 2.17 µM (inactive); in the test with A498, 2.58 µM (inactive); in the test on A549, 2.93 µM (inactive); in the test on HCT-15, 0.977 µM; in the test on HOP-62, 2.08 µM (inactive); in the test on HT-29, 1.2 µM (inactive). Further, the GI50 is 2.02 µM (inactive) in the test with IGROV-1; 0.12 µM (active) in the test on KM12; 1.97 µM (inactive) in the test on MDA-MB-231; 2.01 µM (inactive) in the test with Malme-3M; 3.23 µM (inactive) in the test with NCI-H226; 1.9 µM (inactive) with OVCAR-4. In addition, the GI50 with RXF 393 is 1.9 µM (inactive); with SF-295, 2.11 µM (inactive); with SK-MEL-5 it was 1.9 µM (inactive); in the test with SN12C, 1.63 µM (inactive); in the test on SNB-19, 2.1 µM (inactive); in the test with SR it was 0.238 µM (active). Further, the GI50 in the test on SW-620 was 0.611 µM (active); with U-251, 1.79 µM (inactive).

For `COc1ccc(C[C@@H](C(=O)NCC(N)=O)N(C)C(=O)[C@@H]2CCCN2C(=O)[C@H](CC(C)C)NC(=O)C(C)NC(=O)OCc2ccccc2)cc1` (stereo not given in full) (Cbz-[ξA]LP[NMeY](Me)G-NH2), the GI50 in the test with 786-0 was > 100 µM (inactive); with A498, > 100 µM (inactive); with A549 it was > 100 µM (inactive); in the test with HCT-15, above 100 µM; in the test with HOP-62, > 100 µM (inactive); in the test with HT-29, > 100 µM (inactive). The GI50 in the test on IGROV-1, with KM12, in the test on MDA-MB-231, in the test with Malme-3M, in the test with NCI-H226 and in the test on OVCAR-4 was > 100 µM (inactive) in each case. Further, the GI50 in the test on RXF 393, in the test on SF-295, in the test on SK-MEL-5, with SN12C, with SNB-19 and in the test with SR was > 100 µM (inactive) in each case. Also, the GI50 in the test with SW-620 and in the test with U-251 was > 100 µM (inactive) in each case.

For `Cc1nc(N)nc(N)c1-c1ccc(Cl)c(Cl)c1` [METOPRINE], the GI50 in the test on 786-0 was 0.273 µM (active); in the test with A498, 21.6 µM (inactive); with A549, 0.0325 µM (active); with HCT-15, 0.145 µM; in the test with HOP-62 it was 1.12 µM (inactive); in the test on HT-29, 0.258 µM (active). Further, the GI50 was 2.54 µM (inactive) in the test on IGROV-1; 3.05 µM (inactive) in the test on KM12; 0.466 µM (active) in the test on MDA-MB-231; 2.91 µM (inactive) in the test on Malme-3M; > 33.3 µM (inactive) in the test on NCI-H226; 37.9 µM (inactive) in the test with OVCAR-4. Besides, the GI50 in the test on RXF 393 was 13.2 µM (inactive); in the test with SF-295, 0.411 µM (active); in the test with SK-MEL-5, 0.409 µM (active); with SN12C, 0.664 µM (active); in the test with SNB-19 it was 2.69 µM (inactive); in the test on SR, 0.308 µM (active). The results for the GI50 with SW-620 and in the test with U-251 were 0.144 µM (active) and 0.635 µM (active), respectively.
